Here are results for 19 molecules from PubChem BioAssay (NCI).

Among the test systems are ACHN renal; SW-620 colon; T-47D breast; NCI-H23 lung; SNB-19 CNS; OVCAR-4 ovarian; K-562 leukemia; KM12 colon; SK-MEL-5 melanoma; SNB-75 CNS.
Assay in all cases: DTP human tumour cell line panel, 48 h

Usually TGI stands for the concentration at which net growth stops.

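Step 1: Grow cells in 96-well plates. Step 2: Expose to compound for 48 hours at 5 concentrations. Step 3: Interpolate endpoints linearly; if unreached, use highest concentration. TGI: concentration producing complete growth inhibition.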

Regarding `Cc1ccc2oc3c(ccc(=O)n3C)c(=O)c2c1`, the TGI in the assay with ACHN renal, with SW-620 colon, with T-47D breast, with NCI-H23 lung, with SNB-19 CNS and in the assay with OVCAR-4 ovarian was more than 100 µM throughout. Besides, the concentration for total growth inhibition (TGI) in the assay on K-562 leukemia, in the assay on KM12 colon, in the assay on SK-MEL-5 melanoma and with SNB-75 CNS was more than 100 µM throughout.

Consider `CC(C)CCCC(C)[C@H]1CCC2[C@@H]3CCC4Cc5nc6c(nc5C[C@]4(C)C3CC[C@@]21C)CC1CC[C@@H]2C(CC[C@@]3(C)C2CC[C@@H]3O)[C@@]1(C)C6` (some centres undefined), for which the concentration for total growth inhibition (TGI) with ACHN renal, in the assay on SW-620 colon, in the assay on T-47D breast, in the assay on NCI-H23 lung, with SNB-19 CNS and with OVCAR-4 ovarian was more than 100 µM each time. Further, the TGI in the assay on K-562 leukemia, in the assay on KM12 colon, in the assay with SK-MEL-5 melanoma and in the assay with SNB-75 CNS was more than 100 µM in each case.

Take `O=C1Nc2ccccc2C1S(=O)(=O)c1ccccc1` (centres undefined): the TGI with ACHN renal, with SW-620 colon, in the assay with T-47D breast, in the assay on NCI-H23 lung, in the assay with SNB-19 CNS and in the assay with OVCAR-4 ovarian was more than 100 µM throughout. Further, the TGI in the assay with K-562 leukemia, in the assay on KM12 colon, with SK-MEL-5 melanoma and in the assay on SNB-75 CNS was more than 100 µM in each case.

Take `O=C1c2ccccc2-n2c1nc1ccc(Cl)cc1c2=O`: the TGI in the assay on ACHN renal, in the assay on SW-620 colon, in the assay on T-47D breast, in the assay with NCI-H23 lung, in the assay on SNB-19 CNS and with OVCAR-4 ovarian was more than 100 µM in each case. The concentration for total growth inhibition (TGI) was more than 100 µM in the assay with K-562 leukemia, more than 100 µM with KM12 colon, more than 100 µM in the assay on SK-MEL-5 melanoma and 75.5 µM in the assay on SNB-75 CNS.

With `COc1cccc(N2C(=O)C3CC(CC(C)(C)C)c4c([nH]c5ccccc45)C3C2=O)c1` (centres undefined), the concentration for total growth inhibition (TGI) in the assay with ACHN renal, with SW-620 colon, in the assay on T-47D breast, with NCI-H23 lung, with SNB-19 CNS and with OVCAR-4 ovarian was more than 10 µM throughout. Also, the TGI was more than 10 µM in the assay on K-562 leukemia, more than 10 µM with KM12 colon, more than 10 µM in the assay on SK-MEL-5 melanoma and 7.04 µM in the assay on SNB-75 CNS.

Turning to `CC1=C2CC(C)(C)CC(=O)C2(C)CCC1=O` (centres undefined), the TGI in the assay with ACHN renal, in the assay with SW-620 colon, in the assay with T-47D breast, with NCI-H23 lung, with SNB-19 CNS and with OVCAR-4 ovarian was more than 100 µM in each case. Besides, the TGI with K-562 leukemia, in the assay with KM12 colon, in the assay on SK-MEL-5 melanoma and in the assay on SNB-75 CNS was more than 100 µM in each case.

Consider `CC(C)=NNc1ncnc2nc[nH]c12`, for which the concentration for total growth inhibition (TGI) in the assay on ACHN renal is more than 100 µM; in the assay with SW-620 colon it was more than 100 µM; in the assay on T-47D breast, more than 79.1 µM; with NCI-H23 lung, more than 100 µM; in the assay on SNB-19 CNS it was more than 100 µM; with OVCAR-4 ovarian it was more than 100 µM. For the same molecule, the total growth inhibition concentration (TGI) in the assay with K-562 leukemia was more than 100 µM; in the assay with KM12 colon it was more than 100 µM; with SK-MEL-5 melanoma, 48.8 µM; with SNB-75 CNS, more than 79.6 µM.

In the case of `O=c1[nH]nc(Cc2ccccc2)n1C1CC1`, the concentration for total growth inhibition (TGI) with ACHN renal, with SW-620 colon, in the assay with T-47D breast, in the assay with NCI-H23 lung, in the assay on SNB-19 CNS and in the assay with OVCAR-4 ovarian was more than 100 µM in each case. Moreover, the TGI in the assay with K-562 leukemia, in the assay on KM12 colon, with SK-MEL-5 melanoma and in the assay with SNB-75 CNS was more than 100 µM each time.

In the case of `CC(=O)O[C@H]1C[C@@H](OC(C)=O)[C@@](C)(O)[C@@H]2[C@@H](OC(C)=O)[C@@]3(O)[C@H](/C=C(/CCl)[C@H]4O[C@H]4[C@@H](OC(C)=O)[C@@]12C)OC(=O)[C@@H]3C`, the TGI in the assay with ACHN renal, in the assay on SW-620 colon, in the assay with T-47D breast, with NCI-H23 lung, in the assay on SNB-19 CNS and in the assay on OVCAR-4 ovarian was more than 25 µM in each case. Besides, the concentration for total growth inhibition (TGI) in the assay on K-562 leukemia, in the assay on KM12 colon, in the assay on SK-MEL-5 melanoma and with SNB-75 CNS was more than 25 µM throughout.

Regarding `CC1=CC(=O)c2c(O)c3c(c(O)c2C1=O)C1C(O)C(C3=O)C23C(=O)c4c(O)c(C)cc(O)c4C(O)=C2C(=O)CC(O)C13` (centres undefined), the TGI in the assay with ACHN renal turned out to be 7.44 µM; with SW-620 colon, 12.2 µM; in the assay on T-47D breast, 5.75 µM; with NCI-H23 lung it was 14.1 µM; with SNB-19 CNS, 20.2 µM; in the assay with OVCAR-4 ovarian it was 28 µM. Also, the total growth inhibition concentration (TGI) in the assay on K-562 leukemia was more than 100 µM; in the assay with KM12 colon, 2.5 µM; in the assay with SK-MEL-5 melanoma, 4 µM; in the assay with SNB-75 CNS, 9.1 µM.

Regarding `CC(=O)Nc1sccc1S(=O)(=O)c1ccc(Cl)cc1`, the concentration for total growth inhibition (TGI) in the assay with ACHN renal, with SW-620 colon, with T-47D breast, with NCI-H23 lung, in the assay with SNB-19 CNS and in the assay with OVCAR-4 ovarian was more than 100 µM each time. The concentration for total growth inhibition (TGI) with K-562 leukemia, with KM12 colon, in the assay with SK-MEL-5 melanoma and with SNB-75 CNS was more than 100 µM throughout.

`CC(=O)O[C@H]1C[C@H]2[C@@H]([C@H](OC(C)=O)C[C@@H]3CC4(CC[C@@]32C)OOC2(CCCCC2)OO4)[C@@H]2CC[C@H]([C@H](C)CCC(=O)O)[C@@]12C`: the concentration for total growth inhibition (TGI) in the assay with ACHN renal came out at 20.3 µM; with SW-620 colon, 30 µM; in the assay on T-47D breast, 45.7 µM; with NCI-H23 lung, 16.6 µM; in the assay on SNB-19 CNS, 25.4 µM; in the assay with OVCAR-4 ovarian it was 9.38 µM. In addition, the total growth inhibition concentration (TGI) with K-562 leukemia is 23.7 µM; in the assay on KM12 colon, 17.1 µM; in the assay with SK-MEL-5 melanoma, 22.6 µM; in the assay with SNB-75 CNS, 14.8 µM.

For the molecule `O=S(=O)(O)c1ccc2c(N=Nc3c(O)ccc4ccccc34)cccc2c1`, the TGI with ACHN renal, in the assay with SW-620 colon, with T-47D breast, with NCI-H23 lung, with SNB-19 CNS and with OVCAR-4 ovarian was more than 100 µM throughout. Besides, the TGI with K-562 leukemia was 98.1 µM; in the assay on KM12 colon, more than 100 µM; in the assay on SK-MEL-5 melanoma it was more than 100 µM; in the assay on SNB-75 CNS, more than 100 µM.

As to `O=C(O)Cc1ccc(Oc2nc3ccccc3nc2-c2ccccc2)cc1`, the concentration for total growth inhibition (TGI) in the assay with ACHN renal, with SW-620 colon, in the assay on T-47D breast, in the assay on NCI-H23 lung, in the assay on SNB-19 CNS and in the assay with OVCAR-4 ovarian was more than 100 µM each time. Besides, the TGI in the assay on K-562 leukemia, in the assay with KM12 colon, with SK-MEL-5 melanoma and in the assay with SNB-75 CNS was more than 100 µM throughout.

Turning to `Cc1cc(/N=C/c2ccc(Cl)cc2)n(-c2ccccc2)n1`, the total growth inhibition concentration (TGI) in the assay on ACHN renal was more than 100 µM; with SW-620 colon, more than 100 µM; with T-47D breast it was 79.4 µM; with NCI-H23 lung, more than 100 µM; in the assay on SNB-19 CNS, more than 100 µM; in the assay with OVCAR-4 ovarian, more than 100 µM. Also, the TGI was more than 100 µM in the assay on K-562 leukemia, more than 100 µM in the assay with KM12 colon, 68.8 µM in the assay on SK-MEL-5 melanoma and more than 100 µM in the assay with SNB-75 CNS.

For the molecule `Nc1nc2c(c(=O)[nH]1)NC(CCNc1ccc(C(=O)O)cc1)CN2` (centres undefined), the concentration for total growth inhibition (TGI) in the assay with ACHN renal, in the assay on SW-620 colon, with T-47D breast, in the assay on NCI-H23 lung, in the assay on SNB-19 CNS and in the assay on OVCAR-4 ovarian was more than 100 µM throughout. Further, the concentration for total growth inhibition (TGI) in the assay with K-562 leukemia, with KM12 colon, with SK-MEL-5 melanoma and in the assay on SNB-75 CNS was more than 100 µM throughout.

For the molecule `Cn1c(SCc2c[nH]c3ccccc23)nnc1-c1ccc(Cl)cc1Cl`, the TGI with ACHN renal was 96.8 µM; in the assay on SW-620 colon it was more than 100 µM; with T-47D breast, 43.2 µM; with NCI-H23 lung, 69.9 µM; in the assay with SNB-19 CNS it was 61.7 µM; in the assay with OVCAR-4 ovarian, 34.2 µM. Moreover, the TGI in the assay on K-562 leukemia came out at 24.9 µM; in the assay with KM12 colon, 25.2 µM; with SK-MEL-5 melanoma, 27.5 µM; in the assay with SNB-75 CNS, 25.9 µM.

For the molecule `C=C1C(=O)O[C@@H]2[C@H]1C[C@H](I)[C@@]1(C)CC[C@H](O1)[C@](C)(I)CCCC(C)[C@@H]2O` (some centres undefined), the TGI with ACHN renal is 3.71 µM; in the assay on SW-620 colon, 3.51 µM; with T-47D breast, 12.7 µM; in the assay with NCI-H23 lung it was 20.5 µM; in the assay on SNB-19 CNS, 30.5 µM; in the assay on OVCAR-4 ovarian it was 17.6 µM. Moreover, the concentration for total growth inhibition (TGI) was more than 42.1 µM in the assay with K-562 leukemia, 23.7 µM in the assay on KM12 colon, more than 35.8 µM in the assay on SK-MEL-5 melanoma and 21.3 µM in the assay on SNB-75 CNS.

For the molecule `O=C([O-])C1([n+]2c(-c3ccccc3)cc(-c3ccccc3)cc2-c2ccccc2)CC1`, the TGI in the assay with ACHN renal is more than 100 µM; with SW-620 colon, more than 100 µM; in the assay with T-47D breast, 45.2 µM; with NCI-H23 lung, more than 100 µM; in the assay on SNB-19 CNS, more than 100 µM; in the assay with OVCAR-4 ovarian, more than 100 µM. The concentration for total growth inhibition (TGI) with K-562 leukemia, in the assay with SK-MEL-5 melanoma and with SNB-75 CNS was more than 100 µM in each case.
